Molecules are shown by their SMILES.

One experiment deals with L6. The experiment in a line: Cytotoxicity against rat L6 cells.
The next experiment has as its system Plasmodium falciparum. Kind of experiment: microbe, parasite or virus in culture. The note with it: K1.
Experiment [1] deals with Trypanosoma brucei rhodesiense. The experiment in a line: Antitrypanosomal activity against Trypanosoma brucei rhodesiense STIB900. The class given is functional, organism-based.
Another experiment deals with Leishmania donovani. Kind of experiment: […] activity against Leishmania donovani (MHOM/SD/62/1S-CL2D) axenic amastigotes. Format: functional, organism-based.

Description for Plasmodium falciparum: Antimalarial activity against chloroquine-resistant Plasmodium falciparum K1

Take `CCN(CC)CCCC(C)Nc1ccnc2cc(Cl)ccc12` (stereo not drawn) [CHLOROQUINE]: the IC50 in the experiment on L6 was determined as 117 µM.
In the experiment with Plasmodium falciparum, `C[C@@H]1CC[C@H]2[C@@H](C)C(=O)O[C@@H]3O[C@@]4(C)CC[C@@H]1[C@]32OO4` [ARTEMISININ] gave an IC50 of 0.006 µM.
`COc1cc([C@@H]2c3cc4c(cc3[C@H](O)[C@H]3COC(=O)[C@H]23)OCO4)cc(OC)c1OC` [PODOFILOX] returned an IC50 in the experiment with L6 of 0.01 µM.
Regarding `N=C(N)c1ccc2oc(CCc3cc4cc(C(=N)N)ccc4o3)cc2c1`, the IC50 stood at 0.003 µM in the experiment on Plasmodium falciparum, 0.008 µM in experiment [1], 21.5 µM in the experiment on L6 and 1.06 µM with Leishmania donovani.
`N=C(N)c1ccc(OCCCCCOc2ccc(C(=N)N)cc2)cc1` [PENTAMIDINE]: it took 1.83 µM to reach half-maximal inhibition in the experiment with Leishmania donovani (IC50).

The IC50 is the point on the concentration scale where inhibition reaches its midpoint.

The record behind these values is ChEMBL document CHEMBL1138248, “Synthesis and in vitro antiprotozoal activity of bisbenzofuran cations” (J Med Chem, 2007).
